Experimental data published in US12116388B2, “Amylin receptor agonists” (Novo Nordisk A/S, priority 2022, dated 2024).
Starred links: 1 amine or outer side, 2 acyl side, 3 side chain; linkers in the order of their positions; H or OH if unused. Residues, ends and D or L forms follow the SMILES beside them. *: point of attachment. C18 diacid = O=C(O)CCCCCCCCCCCCCCCCC(=O)*; γGlu = O=C(O)[C@H](CCC(=O)[*:2])N[*:1]

Key:
[1] = target: T1, human amylin receptor (hAMYR3) (Homo sapiens, UniProt O60896+P30988); experiment: Human amylin receptor (hAMYR3) in vitro potency assay, CRE-luciferase reporter in BHK cells; format: cell-based; conditions: BHK hAMYR3/CRE-Luc cells, 3 hours incubation, assay buffer with 1% ovalbumin
T1 construct: host or cells: BHK (Baby Hamster Kidney), Hollex-1 cell line further transfected with RAMP3
In short: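 Luminescence from a CRE-driven luciferase reporter reflects cAMP-mediated receptor activation. Peptides were serially diluted (7 concentrations, 7-fold steps, typically starting near 10 nM) in buffer with 1% ovalbumin and applied for 3 h at 37 °C to BHK cells co-expressing calcitonin receptor (a) and RAMP3.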

[2] = target: T2, human calcitonin receptor (hCTR) (Homo sapiens, UniProt P30988); experiment: Human calcitonin receptor (hCTR) in vitro potency assay, CRE-luciferase reporter in BHK cells; format: cell-based; conditions: BHK hCTR/CRE-Luc cells, 3 hours incubation, assay buffer with 1% ovalbumin; read-out: hCalcR potency, EC50
T2 construct: host or cells: BHK (Baby Hamster Kidney), Hollex-1 cell line
T2 sequence (P30988 25-474): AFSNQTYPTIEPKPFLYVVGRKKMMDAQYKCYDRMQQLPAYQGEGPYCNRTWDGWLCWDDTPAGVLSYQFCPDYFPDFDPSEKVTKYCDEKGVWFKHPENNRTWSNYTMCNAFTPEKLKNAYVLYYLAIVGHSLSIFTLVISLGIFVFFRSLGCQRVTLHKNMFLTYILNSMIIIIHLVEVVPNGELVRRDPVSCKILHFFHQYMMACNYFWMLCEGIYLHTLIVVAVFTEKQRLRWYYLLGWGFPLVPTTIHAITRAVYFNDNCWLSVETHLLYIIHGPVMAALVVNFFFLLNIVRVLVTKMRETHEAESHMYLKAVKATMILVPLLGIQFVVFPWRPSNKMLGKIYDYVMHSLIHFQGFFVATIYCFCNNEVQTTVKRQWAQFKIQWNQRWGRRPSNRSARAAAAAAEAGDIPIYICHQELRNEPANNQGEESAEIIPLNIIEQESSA
In short: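 Luciferase signal from a CRE reporter served as the cAMP read-out after 3 h, 37 °C exposure to compound. Cells were stably transfected BHK expressing hCTR, and the buffer was phenol-red-free DMEM with 10 mM HEPES and 1% ovalbumin. Compounds were tested as 7-point, 7-fold dilutions, often from about 10 nM.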

T1 sequence (O60896 24-148, one chain of several): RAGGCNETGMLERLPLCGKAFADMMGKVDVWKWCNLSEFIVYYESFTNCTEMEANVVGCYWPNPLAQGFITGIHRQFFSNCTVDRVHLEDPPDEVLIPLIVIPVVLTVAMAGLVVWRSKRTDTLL

| Compound | EC50 [1] [pM] | EC50 [2] [pM] |
| --- | --- | --- |
| CC[C@H](C)[C@H](NC(=O)[C@H](C)NC(=O)CNC(=O)[C@H](Cc1ccccc1)NC(=O)[C@@H]1CCCN1C(=O)[C@H](CC(=O)O)NC(=O)[C@H](CO)NC(=O)[C@H](CO)NC(=O)[C@H](Cc1c[nH]cn1)NC(=O)[C@H](Cc1c[nH]cn1)NC(=O)[C@H](CC(C)C)NC(=O)[C@H](Cc1ccccc1)NC(=O)[C@H](CCC(=O)O)NC(=O)[C@H](C)NC(=O)[C@H](CC(C)C)NC(=O)[C@H](CCCNC(=N)N)NC(=O)[C@H](C)NC(=O)[C@@H](NC(=O)[C@H](CCC(N)=O)NC(=O)[C@H](C)NC(=O)[C@@H](NC(=O)[C@H](CO)NC(=O)[C@H](CC(C)C)NC(=O)[C@H](Cc1c[nH]cn1)NC(=O)[C@H](CO)NC(=O)[C@H](C)NC(=O)CC[C@H](NC(=O)CCCCCCCCCCCCCCCCC(=O)O)C(=O)O)[C@@H](C)O)[C@@H](C)O)C(=O)N1CCC[C@H]1C(=O)N[C@@H](CO)C(=O)N[C@@H](CO)C(=O)N[C@H](C(=O)N[C@@H](CC(=O)O)C(=O)N[C@H](C(=O)NCC(=O)N1CCC[C@H]1C(=O)N[C@@H](CC(=O)O)C(=O)N[C@H](C(=O)N1CCC[C@H]1C(N)=O)[C@@H](C)O)C(C)C)[C@@H](C)O [Compound 25, N^1-[(4S)-4-carboxy-4-(17-carboxyheptadecanoylamino)butanoyl]-[Ala1,Ser2,His3,Leu4,Ser5,Ala7,Gln8,Ala10,Glu14,His17,Asp21,Pro22,Pro27,Asp31,Pro34,Asp35,Pro37]-human amylin] ({C18 diacid-γGlu}-ASHLSTAQTARLAEFLHHSSDPFGAIPSSTDVGPDTP-NH2) | 1.27 | 1.5 |
| CC[C@H](C)[C@H](NC(=O)[C@@H]1CCCN1C(=O)CNC(=O)[C@H](Cc1ccccc1)NC(=O)[C@H](CC(N)=O)NC(=O)[C@H](CC(=O)O)NC(=O)[C@H](CO)NC(=O)[C@H](CO)NC(=O)[C@H](Cc1c[nH]cn1)NC(=O)[C@H](Cc1c[nH]cn1)NC(=O)[C@H](CC(C)C)NC(=O)[C@H](Cc1ccccc1)NC(=O)[C@H](CCC(=O)O)NC(=O)[C@H](C)NC(=O)[C@H](CC(C)C)NC(=O)[C@H](CCCNC(=N)N)NC(=O)[C@H](C)NC(=O)[C@@H](NC(=O)[C@H](CCC(N)=O)NC(=O)[C@H](C)NC(=O)[C@@H](NC(=O)[C@H](CO)NC(=O)[C@H](CC(C)C)NC(=O)[C@H](Cc1c[nH]cn1)NC(=O)[C@H](CO)NC(=O)[C@H](C)NC(=O)CC[C@H](NC(=O)CCCCCCCCCCCCCCCCC(=O)O)C(=O)O)[C@@H](C)O)[C@@H](C)O)C(=O)N[C@@H](CC(C)C)C(=O)N1CCC[C@H]1C(=O)N1CCC[C@H]1C(=O)N[C@H](C(=O)N[C@@H](CC(=O)O)C(=O)N[C@H](C(=O)NCC(=O)N[C@@H](CO)C(=O)N[C@@H](CC(N)=O)C(=O)N[C@H](C(=O)N1CCC[C@H]1C(N)=O)[C@@H](C)O)C(C)C)[C@@H](C)O [Compound 14, N^1-[(4S)-4-carboxy-4-(17-carboxyheptadecanoylamino)butanoyl]-[Ala1,Ser2,His3,Leu4,Ser5,Ala7,Gln8,Ala10,Glu14,His17,Asp21,Pro25,Pro28,Pro29,Asp31,Pro37]-human amylin] ({C18 diacid-γGlu}-ASHLSTAQTARLAEFLHHSSDNFGPILPPTDVGSNTP-NH2) | 1.28 | 1.63 |
| CC[C@H](C)[C@H](NC(=O)[C@@H]1CCCN1C(=O)CNC(=O)[C@H](Cc1ccccc1)NC(=O)[C@H](Cc1c[nH]cn1)NC(=O)[C@H](Cc1c[nH]cn1)NC(=O)[C@H](CC(C)C)NC(=O)[C@H](Cc1ccccc1)NC(=O)[C@H](CCC(=O)O)NC(=O)[C@H](C)NC(=O)[C@H](CC(C)C)NC(=O)[C@H](CCCNC(=N)N)NC(=O)[C@H](C)NC(=O)[C@@H](NC(=O)[C@H](CCC(N)=O)NC(=O)[C@H](C)NC(=O)[C@@H](NC(=O)[C@H](CO)NC(=O)[C@H](CC(C)C)NC(=O)[C@H](Cc1c[nH]cn1)NC(=O)[C@H](CO)NC(=O)[C@H](C)NC(=O)CC[C@H](NC(=O)CC[C@H](NC(=O)CCCCCCCCCCCCCCCCC(=O)O)C(=O)O)C(=O)O)[C@@H](C)O)[C@@H](C)O)C(=O)N[C@@H](CC(C)C)C(=O)N1CCC[C@H]1C(=O)N1CCC[C@H]1C(=O)N[C@H](C(=O)N[C@@H](CC(=O)O)C(=O)N[C@H](C(=O)NCC(=O)N[C@@H](CO)C(=O)N[C@@H](CCC(=O)O)C(=O)N[C@H](C(=O)N1CCC[C@H]1C(N)=O)[C@@H](C)O)C(C)C)[C@@H](C)O [Compound 17, N^1-[(4S)-4-carboxy-4-[[(4S)-4-carboxy-4-(17-carboxyheptadecanoylamino)butanoyl]amino]butanoyl]-[Ala1,Ser2,His3,Leu4,Ser5,Ala7,Gln8,Ala10,Glu14,His17,Pro25,Pro28,Pro29,Asp31,Glu35,Pro37],des-(19-22)-human amylin] ({C18 diacid-γGlu-γGlu}-ASHLSTAQTARLAEFLHHFGPILPPTDVGSETP-NH2) | 1.11 | 1.15 |
| CC[C@H](C)[C@H](NC(=O)[C@H](C)NC(=O)CNC(=O)[C@H](Cc1ccccc1)NC(=O)[C@@H]1CCCN1C(=O)[C@H](CC(=O)O)NC(=O)[C@H](CO)NC(=O)[C@H](CO)NC(=O)[C@H](Cc1c[nH]cn1)NC(=O)[C@H](Cc1c[nH]cn1)NC(=O)[C@H](CC(C)C)NC(=O)[C@H](Cc1ccccc1)NC(=O)[C@H](CCC(=O)O)NC(=O)[C@H](C)NC(=O)[C@H](CC(C)C)NC(=O)[C@H](CCCNC(=N)N)NC(=O)[C@H](CCC(N)=O)NC(=O)[C@@H](NC(=O)[C@H](CCC(N)=O)NC(=O)[C@H](C)NC(=O)[C@@H](NC(=O)[C@H](CO)NC(=O)[C@H](CC(C)C)NC(=O)[C@H](CCC(N)=O)NC(=O)[C@H](CO)NC(=O)[C@H](C)NC(=O)CC[C@H](NC(=O)CCCCCCCCCCCCCCCCC(=O)O)C(=O)O)[C@@H](C)O)[C@@H](C)O)C(=O)N1CCC[C@H]1C(=O)N[C@@H](CO)C(=O)N[C@@H](CO)C(=O)N[C@H](C(=O)N[C@@H](CC(=O)O)C(=O)N[C@H](C(=O)NCC(=O)N1CCC[C@H]1C(=O)N[C@@H](CC(=O)O)C(=O)N[C@H](C(=O)N1CCC[C@H]1C(N)=O)[C@@H](C)O)C(C)C)[C@@H](C)O [Compound 24] ({C18 diacid-γGlu}-ASQLSTAQTQRLAEFLHHSSDPFGAIPSSTDVGPDTP-NH2) | 1.49 | 1.56 |
| CC[C@H](C)[C@H](NC(=O)[C@@H]1CCCN1C(=O)CNC(=O)[C@H](Cc1ccccc1)NC(=O)[C@H](CC(N)=O)NC(=O)[C@H](CC(=O)O)NC(=O)[C@H](CO)NC(=O)[C@H](CO)NC(=O)[C@H](Cc1c[nH]cn1)NC(=O)[C@H](Cc1c[nH]cn1)NC(=O)[C@H](CC(C)C)NC(=O)[C@H](Cc1ccccc1)NC(=O)[C@H](CCC(=O)O)NC(=O)[C@H](C)NC(=O)[C@H](CC(C)C)NC(=O)[C@H](CCCNC(=N)N)NC(=O)[C@H](C)NC(=O)[C@@H](NC(=O)[C@H](CCC(N)=O)NC(=O)[C@H](C)NC(=O)[C@@H](NC(=O)[C@H](CO)NC(=O)[C@H](CC(C)C)NC(=O)[C@H](CCC(N)=O)NC(=O)[C@H](CO)NC(=O)[C@H](C)NC(=O)CC[C@H](NC(=O)CCCCCCCCCCCCCCCCC(=O)O)C(=O)O)[C@@H](C)O)[C@@H](C)O)C(=O)N[C@@H](CC(C)C)C(=O)N1CCC[C@H]1C(=O)N1CCC[C@H]1C(=O)N[C@H](C(=O)N[C@@H](CC(=O)O)C(=O)N[C@H](C(=O)NCC(=O)N[C@@H](CO)C(=O)N[C@@H](CC(N)=O)C(=O)N[C@H](C(=O)N1CCC[C@H]1C(N)=O)[C@@H](C)O)C(C)C)[C@@H](C)O [Compound 22, N^1-[(4S)-4-carboxy-4-(17-carboxyheptadecanoylamino)butanoyl]-[Ala1,Ser2,Gln3,Leu4,Ser5,Ala7,Gln8,Ala10,Glu14,His17,Asp21,Pro25,Pro28,Pro29,Asp31,Pro37]-human amylin] ({C18 diacid-γGlu}-ASQLSTAQTARLAEFLHHSSDNFGPILPPTDVGSNTP-NH2) | 1.22 | 1.86 |
